Earlier results, collected in patent US12400737B2, “Methods of classifying diffuse large B-cell lymphoma” (CELGENE CORPORATION, priority 2018, dated 2025).

Legend:
[1] = test system: diffuse large B-cell lymphoma (DLBCL); conditions: background statement
[2] = test system: acute myeloid leukemia (AML); conditions: administered alone

Molecule: Nc1cccc2c1CN(C1CCC(=O)NC1=O)C2=O (centres unmarked) [lenalidomide, 3-(4-amino-1-oxo-1,3-dihydro-isoindol-2-yl)-piperidine-2,6-dione]
- single-agent activity in DLBCL [1]: significant single-agent activity

Molecule: CT-011: anti-PD-1 antibody, a humanized antibody
- response in treating AML at relapse [2]: failed to show response
